Results reported in patent US8435978B2, “Substituted sulfonamide compounds” (Gruenenthal GmbH, priority 2006, dated 2013).

Legend:
[1] = biological target: T1, B1R receptor of the rat (Rattus norvegicus, UniProt P97583); assay: Functional study on the bradykinin receptor 1 (B1R), FLIPR Ca2+ assay, rB1R cells; assay type: cell-based; settings: test substance 10 μM; rB1R CHO K1 cells; agonist Des-Arg9-bradykinin 100 nM; % inhibition compared with the maximum achievable inhibition
T1 construct: host or cells: CHO K1 cells (Chinese hamster ovary), stably transfected
T1 sequence (P97583 1-337): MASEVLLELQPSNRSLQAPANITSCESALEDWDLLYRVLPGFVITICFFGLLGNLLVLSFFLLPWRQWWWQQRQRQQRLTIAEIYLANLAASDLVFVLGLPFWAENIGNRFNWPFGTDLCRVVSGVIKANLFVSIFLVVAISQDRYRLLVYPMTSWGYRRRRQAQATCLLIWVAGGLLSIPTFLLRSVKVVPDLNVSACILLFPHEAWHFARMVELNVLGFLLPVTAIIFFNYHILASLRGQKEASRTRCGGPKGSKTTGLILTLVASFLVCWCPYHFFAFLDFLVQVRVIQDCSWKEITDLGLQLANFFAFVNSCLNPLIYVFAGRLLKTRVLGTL
Summary of the method: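 CHO K1 cells stably expressing human or rat B1R, Fluo-4-loaded; test compound 10 μM added first (activation % vs agonist), then after 10 min 0.5 nM Lys-Des-Arg9-bradykinin (human) or 100 nM Des-Arg9-bradykinin (rat). Ca2+ peak fluorescence by FLIPR; % inhibition relative to maximum achievable inhibition.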

[2] = test system: Bradykinin Receptor 1 (B1R)-mediated formation of IL-6 in IMR-90 fibroblasts; assay: Inhibition of the B1R-mediated formation of IL-6 in IMR-90 fibroblasts (IL-6 ELISA); assay type: cell-based, human; settings: antagonist 10 μM
Text: The pro-inflammatory cytokines TNFα (or IL-1) lead in various cell types, such as, for example, fibroblasts, to an activation, which brings about inter alia enhanced expression of B1R. Subsequent stimulation of these cells with a B1R agonist results in the formation of further pro-inflammatory cytokines, such as, for example, IL-6. The chronification of inflammations is thereby promoted. Treatment with a B1R antagonist should lead to inhibition of the B1R agonist-induced IL-6 formation. By way of example, a B1R antagonist identified in the FLIPR assay was tested in this respect.
The human fibroblast cell line IMR-90 (ATCC, CCL-186) was passaged in culture medium (Ham's F12 nutrient mixture, Gibco Invitrogen GmbH, Karlsruhe Germany with 10% FBS, fetal bovine serum, Gibco, Invitrogen GmbH, Karlsruhe Germany; 0.1 mM non-essential amino acids, Gibco, 11140-035, 1 mM sodium pyruvate, Euro Clone, ECM0542D; 1.5 g/l sodium bicarbonate, Euro Clone, ECM0980D) on 80 cm^2 bottles (Nunc; 178905) (ratio:1:2 to 1:6; medium replaced every 3-4 days) and plated out for experiments on 96-well plates (Greiner bio-one; No. 655180) with 1×10^5 cells per well. The cells are incubated overnight at 37° C. and 5% CO2.
For activation with TNFα (human, recombinant, expressed in E. coli, SIGMA-ALDRICH T6674, 10 ng/ml) alone or TNFα combined with the human B1R agonist Lys-Des-Arg^9-bradykinin (Lys-Des-Arg^9-BK), the IMR-90 fibroblasts were incubated overnight at 37° C. and 5% CO2 in culture medium. The final concentrations of Lys-Des-Arg^9-BK were 1000 nM or 10 nM. Some IMR-90 stimulation batches additionally contained the B1R antagonist of Example 8 in a final concentration of 10 μM. 24 hours after activation, in each case 150 μl of culture medium were removed from all the different stimulation batches and were transferred to a new plate and frozen. After thawing of the supernatants, the IL-6 content was determined by means of a commercially available IL-6 Elisa.
ELISA Assay (Procedure, Modified According the Manufacturer's Specifications):
Elisa kit: from: BIOSOURCE; CytoSets™, Art. No.: CHC 1264
The above-described processes were carried out with Example compound 8.

[3] = TNFα 10 ng/ml, 24 hours after activation

COc1cc(C)c(S(=O)(=O)N2CCCCC2COCC(=O)N2CCN(C3CCN(C)CC3)CC2)c(C)c1 (stereo not drawn) [Example 8, 2-[1-(4-methoxy-2,6-dimethyl-phenylsulfonyl)-piperidin-2-ylmethoxy]-1-[4-(1-methyl-piperidin-4-yl)-piperazin-1-yl]-ethanone]
B1R Antagonism, rat [10 μM] % Inhibition [1]: 106.6% | inhibition of the activation of IL-6 formation ([2]; TNFα + relatively high dose of Lys-Des-Arg^9-BK (1000 nM)): still partially inhibited | inhibition of the activation of IL-6 formation ([2]; TNFα + relatively low dose of Lys-Des-Arg^9-BK (10 nM)): eliminated almost completely | Production of IL-6 (pg/ml) by IMR-90 fibroblasts, TNFα + Lys-Des-Arg^9-BK (10 nM) [2, 3]: 119 pg/mL | Production of IL-6 (pg/ml) by IMR-90 fibroblasts, TNFα + Lys-Des-Arg^9-BK (1000 nM) [2, 3]: 483 pg/mL | Production of IL-6 (pg/ml) by IMR-90 fibroblasts, TNFα alone [2, 3]: 136 pg/mL
